From patent publication US9833497B2, “Human originated EGF domain proteins and use of the same” (CHENGDU SOURCEBIO LIMITED-LIABILITY COMPANY, priority 2013, dated 2017)

What was measured:
Assay type in all cases: cell-based
E. coli DH5α = assay: Antibacterial activity: MIC and growth curve against E. coli DH5α in 96-well plate; settings: minimal inhibitory concentration against E. coli DH5α; 96-well plate, 5×10^5 CFU/mL, 37° C., judged after 8 h
Procedure, shortened: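 MIC taken as lowest protein level with no bacterial growth, tracked by A600 every 30 min during 37 °C, 175 rpm culture. Two-fold protein series 50-12.5 μg/mL final, triplicate wells, against 5×10^5 CFU/mL of LB-washed mid-log cells.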

E. coli BL21 = assay: MIC against Gram-negative bacteria: E. coli BL21; settings: E. coli BL21; 96-well plate, 5×10^5 CFU/mL, 37° C., 10 h
Procedure, shortened: (§1)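 Inocula prepared by growing LB cultures at 37° C to 0.5 McFarland, centrifuging at 4000×g, and resuspending in fresh medium. Final density 5×10^5 CFU/mL per well with two-fold dilutions of purified EGF domain protein; shaking incubation at 37° C.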

Pseudomonas aeruginosa = assay: MIC against Gram-negative bacteria: Pseudomonas aeruginosa; settings: Pseudomonas aeruginosa; 96-well plate, 5×10^5 CFU/mL, 37° C., 10 h
Procedure, shortened: as §1

Klebsiella pneumonia = assay: MIC against Gram-negative bacteria: Klebsiella pneumonia; settings: Klebsiella pneumonia; 96-well plate, 5×10^5 CFU/mL, 37° C., 10 h
Procedure, shortened: as §1

Enterobacter cloacae = assay: MIC against Gram-negative bacteria: Enterobacter cloacae; settings: Enterobacter cloacae; 96-well plate, 5×10^5 CFU/mL, 37° C., 10 h
Procedure, shortened: as §1

Aeromonas hydrophila = assay: MIC against Gram-negative bacteria: Aeromonas hydrophila; settings: Aeromonas hydrophila; 96-well plate, 5×10^5 CFU/mL, 37° C., 10 h
Procedure, shortened: as §1

Citrobacter diversus = assay: MIC against Gram-negative bacteria: Citrobacter diversus; settings: Citrobacter diversus; 96-well plate, 5×10^5 CFU/mL, 37° C., 10 h
Procedure, shortened: as §1

Moraxella catarrhalis = assay: MIC against Gram-negative bacteria: Moraxella catarrhalis; settings: Moraxella catarrhalis; 96-well plate, 5×10^5 CFU/mL, 37° C., 10 h
Procedure, shortened: as §1

Proteus mirabilis = assay: MIC against Gram-negative bacteria: Proteus mirabilis; settings: Proteus mirabilis; 96-well plate, 5×10^5 CFU/mL, 37° C., 10 h
Procedure, shortened: as §1

Proteus vulgaris = assay: MIC against Gram-negative bacteria: Proteus vulgaris; settings: Proteus vulgaris; 96-well plate, 5×10^5 CFU/mL, 37° C., 10 h
Procedure, shortened: as §1

Serratia marcescens = assay: MIC against Gram-negative bacteria: Serratia marcescens; settings: Serratia marcescens; 96-well plate, 5×10^5 CFU/mL, 37° C., 10 h
Procedure, shortened: as §1

Substance | MIC (E. coli DH5α) [µg/mL] | MIC against E. coli BL21 (E. coli BL21) [µg/mL] | MIC against P. aeruginosa (Pseudomonas aeruginosa) [µg/mL] | MIC against K. pneumonia (Klebsiella pneumonia) [µg/mL] | MIC against E. cloacae (Enterobacter cloacae) [µg/mL] | MIC against A. hydrophila (Aeromonas hydrophila) [µg/mL] | MIC against C. diversus (Citrobacter diversus) [µg/mL] | MIC against M. catarrhalis (Moraxella catarrhalis) [µg/mL] | MIC against P. mirabilis (Proteus mirabilis) [µg/mL] | MIC against P. vulgaris (Proteus vulgaris) [µg/mL] | MIC against S. marcescens (Serratia marcescens) [µg/mL]
PRT1298 (PINTCIQNPCQHGGTCHLSDSHKDGFSCSCPLGFEGQRCE; listed as Homo sapiens) | 12.5 | 50 | 12.5 | 50 | 25 | 12.5 | 50 | 12.5 | 50 | 12.5 | 25
PRT1300 (VIDHCVPELNLCQHEAKCIPLDKGFSCECVPGYSGKLCE; listed as Homo sapiens) | 12.5 | 50 | 25 | 12.5 | 25 | 50 | 12.5 | 12.5 | 12.5 | 12.5 | 12.5
PRT1301 (DNDDCVAHKCRHGAQCVDTINGYTCTCPQGFSGPFCE; listed as Homo sapiens) | 12.5 | 12.5 | 12.5 | 12.5 | 50 | 25 | 12.5 | 50 | 12.5 | 25 | 50
PRT1302 (QTSPCDQYECQNGAQCIVVQQEPTCRCPPGFAGPRCE; listed as Homo sapiens) | 12.5 | 50 | 12.5 | 50 | 25 | 12.5 | 50 | 12.5 | 25 | 50 | 25
PRT1303 (HGLCRSVEKDSVVCECRPGWTGPLCD; listed as Homo sapiens) | 12.5 | 50 | 12.5 | 50 | 12.5 | 50 | 12.5 | 12.5 | 25 | 12.5 | 25
PRT1304 (ARDPCLGHRCHHGKCVATGTSYMCKCAEGYGGDLCD; listed as Homo sapiens) | 25 | 12.5 | 25 | 12.5 | 12.5 | 25 | 12.5 | 25 | 12.5 | 25 | 12.5
PRT1305 (SANACSAFKCHHGQCHISDQGEPYCLCQPGFSGEHCQ; listed as Homo sapiens) | 12.5 | 50 | 12.5 | 50 | 12.5 | 50 | 12.5 | 50 | 25 | 25 | 12.5
PRT1306 (CSLLCLPKANNSRSCRCPEDVSSSVLPSGDLMCDCPQGYQLKNNTCV; listed as Homo sapiens) | 25 | 50 | 12.5 | 50 | 12.5 | 25 | 50 | 25 | 12.5 | 25 | 50
PRT1307 (HECPGGAETPCNGHGTCLDGMDRNGTCVCQENFRGSACQ; listed as Homo sapiens) | 12.5 | 50 | 12.5 | 50 | 100 | 50 | 12.5 | 50 | 25 | 12.5 | 25
PRT1308 (TSPQCPRKCDPNANCVQDSAGASTCACAAGYSGNGIFCS; listed as Homo sapiens) | 50 | 12.5 | 50 | 12.5 | 50 | 12.5 | 25 | 50 | 25 | 12.5 | 50
PRT1309 (EVDPCAHGHGGCSPHANCTKVAPGQRTCTCQDGYMGDGELCQ; listed as Homo sapiens) | 12.5 | 50 | 12.5 | 50 | 12.5 | 50 | 25 | 12.5 | 25 | 50 | 25
PRT1310 (EINSCLIHHGGCHIHAECIPTGPQQVSCSCREGYSGDGIRTCE; listed as Homo sapiens) | 12.5 | 50 | 12.5 | 25 | 50 | 12.5 | 25 | 50 | 25 | 12.5 | 25
PRT1311 (LLDPCSKNNGGCSPYATCKSTGDGQRTCTCDTAHTVGDGLTCR; listed as Homo sapiens) | 50 | 25 | 12.5 | 25 | 50 | 12.5 | 50 | 25 | 12.5 | 25 | 25
PRT1312 (LQPVCTPPCAPEAVCRAGNSCECSLGYEGDGRVCT; listed as Homo sapiens) | 50 | 12.5 | 50 | 12.5 | 50 | 12.5 | 50 | 12.5 | 50 | 12.5 | 50
PRT1313 (VADLCQDGHGGCSEHANCSQVGTMVTCTCLPDYEGDGWSCR; listed as Homo sapiens) | 12.5 | 25 | 50 | 25 | 12.5 | 25 | 50 | 12.5 | 50 | 12.5 | 50
